Measured values: patent US20080050444A1, “Pharmaceutical compositions of ilaparazole” (priority 2005, published 2008)

Assays:
[1] = Particle size distribution of ilaprazole lots (Sympatec HELOS, low-angle laser light scattering); type: physicochemical; details: nitrogen pressure 2 bar
Procedure: The two lots of ilaprazole active ingredient were analyzed using a Sympatec HELOS particle size system with a RODOS dry powder disperser. This instrument operates using low-angle laser light scattering analyzed by Fraunhofer diffraction theory. Aliquots of approximately 0.5 g were fed into the instrument from a vibrating tray into a jet of nitrogen gas. After flowing through an interaction tube, an aerosol was formed in the path of a laser beam. The angle and intensity of diffracted light was then measured to determine the particle size distribution. As part of the method development, the particle size distribution was measured as a function of nitrogen gas pressure, and a pressure of 2 bar was determined to adequately break apart loosely adhered particles without significant milling of the sample. The results are shown below in Table 1 and in FIG. 1. The particle sizes are listed as x10, x50 and x90, the diameter where 10%, 50% and 90% of the volume of the material is in a particle smaller than the listed size.

[2] = acid or neutral conditions; known in the art; cited from earlier work

Row | Compound | x10 Mean ([1]; diameter where 10% of the volume of the material is in a particle smaller than the listed size) [μm] | x50 Mean ([1]; diameter where 50% of the volume of the material is in a particle smaller than the listed size) [μm] | x90 Mean ([1]; diameter where 90% of the volume of the material is in a particle smaller than the listed size) [μm] | stability [2]
1 | COc1ccnc(C[S+]([O-])c2nc3cc(-n4cccc4)ccc3[nH]2)c1C (stereo not shown) [Lot A, ilaprazole] | 1.01 | 3.74 | 14.79 | –
2 | COc1ccnc(C[S+]([O-])c2nc3cc(-n4cccc4)ccc3[nH]2)c1C (stereo not shown) [ilaprazole, 2-[[(4-methoxy-3-methyl)-2-pyridyl]methylsufinyl]-5-(1H-pyrrol-1-yl)benzimidazole] | – | – | – | unstable under acid or neutral conditions
